Data reported in patent publication US8178506B2, “Oligomeric compounds and compositions for use in modulation of small non-coding RNAs” (Regulus Therapeutics Inc., priority 2003, dated 2012).
In the oligonucleotide strings, read from the 5' end, every base follows the letter of its sugar. An asterisk marks phosphorothioate; unmarked linkages are phosphodiester. Other units and linkages are bracketed, terminal groups are in braces. A string of capitals states the bases alone. e = 2'-O-(2-methoxyethyl) (MOE); [5mC] = 5-methylcytosine; d = 2'-deoxy (DNA)

Columns and labels:
Type in all cases: cell-based, human
[1] = test system: preadipocytes / differentiating adipocytes; experiment: Adipocyte differentiation assay, markers taken together; conditions: for expression of the adipocyte differentiation markers, compounds targeting mir-143 miRNA or pri-miRNA compared: preadipocytes (Table 20); for expression levels of markers of adipocyte differentiation (TG, leptin, aP2, HSL, Glut4, PPARγ): preadipocytes, 250 nM, day nine post-transfection, relative to ISIS-29848
BJ cells = experiment: Cell cycle assay in BJ cells; conditions: 200 nM, 48 hours, relative to untreated control
Experimental: BJ cells were routinely cultured in MEM high glucose with 2 mM L-glutamine and Earle's BSS adjusted to contain 1.5 g/L sodium bicarbonate and supplemented with 10% fetal bovine serum, 0.1 mM non-essential amino acids and 1.0 mM sodium pyruvate (all media and supplements from Invitrogen Life Technologies, Carlsbad, Calif.). B16-F10 cells were routinely cultured in DMEM high glucose (Invitrogen Life Technologies, Carlsbad, Calif.) supplemented with 10% fetal bovine serum (Invitrogen Life Technologies, Carlsbad, Calif.). T47D cells were cultured in DMEM High glucose media (Invitrogen Life Technologies, Carlsbad, Calif.) supplemented with 10% fetal bovine serum. […] Cells were plated on collagen-coated 24-well plates (Falcon-Primaria #3047, BD Biosciences, Bedford, Mass.) at approximately 50,000 cells per well and allowed to attach to wells overnight.
(§1) In further studies, additional cell lines were treated with oligomeric compounds targeted against miRNAs to assess the effects of each oligomeric compound on cell cycling. BJ, B16, T47D, and HeLa cells were cultured and transfected as described above. […] T47Dp53 cells are T47D cells that have been transfected with and selected for maintenance of a plasmid that expresses a wildtype copy of the p53 gene (for example, pCMV-p53; Clontech, Palo Alto, Calif.), using standard laboratory procedures. BJ cells were treated with 200 nM of each oligomeric compound, and T47D, T47Dp53, HeLa, and B16 cells were treated with 150 nM of each oligomeric compound. The human foreskin fibroblast BJ cell line represents a non-cancer cell line, while HeLa, T47D, T47Dp53 cells and the mouse melanoma cell line B16-F10 represent cancerous cell lines. For comparison, oligomeric compounds ISIS 183891 (SEQ ID NO: 847) and ISIS 285717 ([…]; herein incorporated as SEQ ID NO: 857), both targeting the kinesin-like 1/Eg5 mRNA, involved in cell cycling, were used as positive controls. The random-mer ISIS 29848 was used as a negative control. Additionally, the oligomeric compounds ISIS Number 25690 ([…]; herein incorporated as SEQ ID NO: 858) and ISIS Number 25691 ([…]; herein incorporated as SEQ ID NO: 859), targeted to nucleotides 3051-3070 and 3085-3104, respectively, of the mRNA encoding the Drosha RNase III (GenBank Accession NM_013235.2, incorporated herein as SEQ ID NO: 860) were also tested. ISIS Number 25690 and ISIS Number 25691 are 5-10-52′-MOE gapmer compounds, 20 nucleotides in length, with phosphorothioate internucleoside linkages throughout the oligomeric compound. All cytidine residues are 5-methylcytidines. Transfections were performed using the methods described herein. Cells were prepared for flow cytometry 48-hours after oligonucleotide treatment. Results of these studies are shown in Table 35, where data are expressed as percentage of cells in each phase relative to the untreated control cells in that phase.

T47Dp53 cells = experiment: Cell cycle assay in T47Dp53 cells; conditions: 150 nM, 48 hours, relative to untreated control
Experimental: as §1

| Substance | expression of all five markers of differentiation, dose response ([1]; differentiating adipocytes, 50, 100, 200 and 300 nM, 24 hours) | expression of the adipocyte differentiation markers, compounds targeting mir-143 miRNA or pri-miRNA compared [1] | expression levels of markers of adipocyte differentiation (TG, leptin, aP2, HSL, Glut4, PPARγ) [1] | % cells in cell cycle phase G1 (BJ cells) | % cells in cell cycle phase G2/M (BJ cells) | % cells in cell cycle phase S (BJ cells) | % cells in cell cycle phase aneuploid (BJ cells) | % cells in cell cycle phase subG1 (BJ cells) | % cells in cell cycle phase G1 (T47Dp53 cells) | % cells in cell cycle phase G2/M (T47Dp53 cells) | % cells in cell cycle phase S (T47Dp53 cells) | % cells in cell cycle phase aneuploid (T47Dp53 cells) | % cells in cell cycle phase subG1 (T47Dp53 cells) | expression of the adipocyte differentiation markers, compounds targeting mir-143 miRNA or pri-miRNA compared ([1]; listed as ISIS 340972) |
| --- | --- | --- | --- | --- | --- | --- | --- | --- | --- | --- | --- | --- | --- | --- |
| TGAGCTACAGTGCTTCATCTCA [ISIS 327901] (chemistry not given here) [uniform 2′-MOE PS; targets mir-143] | dose responsive reduction of expression of all five markers of differentiation | more effective | significantly reduce the expression levels of 5 of 6 markers of adipocyte differentiation |  |  |  |  |  |  |  |  |  |  |  |
| 328759 (antisense eG*eA*eG*eG*eG*dA*dT*dT*dG*dT*dA*dT*dG*dA*dA*e[5mC]*eA*eT*e[5mC]*eT) [compound 328759] |  |  |  | 91% | 141% | 117% | 160% | 164% | 99% | 108% | 93% | 109% | 423% |  |
| 327902 (antisense eG*eG*e[5mC]*eT*eG*eT*e[5mC]*eA*eA*eT*eT*e[5mC]*eA*eT*eA*eG*eG*eT*e[5mC]*eA*eG) [compound 327902] |  |  |  | 99% | 108% | 88% | 82% | 91% | 100% | 102% | 98% | 97% | 155% |  |
| TGAGCTACAGTGCTTCATCTCA [ISIS 340927] (chemistry not given here) [5-10-7 2′-MOE gapmer PS; targets mature mir-143] |  |  |  |  |  |  |  |  |  |  |  |  |  | reduced expression of the adipocyte differentiation markers |
| 327905 (antisense e[5mC]*eA*eG*eA*e[5mC]*eT*e[5mC]*e[5mC]*eG*eG*eT*eG*eG*eA*eA*eT*eG*eA*eA*eG*eG*eA) [compound 327905] |  |  |  | 100% | 109% | 77% | 102% | 105% | 112% | 104% | 80% | 103% | 109% |  |
| ACTTTCGGTTATCTAGCTTTA [ISIS 327892] (chemistry not given here) [uniform 2′-MOE PS; targets mir-131-2/mir-9] |  |  | significantly reduce the expression levels of 5 of 6 markers of adipocyte differentiation |  |  |  |  |  |  |  |  |  |  |  |
